Experimental data: patent US6399105B1, “Sea cucumber carotenoid lipid fraction products and methods of use” (priority 2000, dated 2002)

Legend:
5-lipoxygenase (5-LO) = target: T1, 5-lipoxygenase (5-LO) (Homo sapiens, UniProt P09917); assay: 5-Lipoxygenase assay in human PMNs (LTB4, isomers, 5-HETE by HPLC); type: cell-based; details: human neutrophils
T1 construct: Human PMNs isolated by standard procedures from a normal volunteer were prewarmed to 37° C; endogenous in cells; host or cells: human polymorphonuclear leukocytes (neutrophils) from a normal volunteer
T1 sequence (P09917 1-674): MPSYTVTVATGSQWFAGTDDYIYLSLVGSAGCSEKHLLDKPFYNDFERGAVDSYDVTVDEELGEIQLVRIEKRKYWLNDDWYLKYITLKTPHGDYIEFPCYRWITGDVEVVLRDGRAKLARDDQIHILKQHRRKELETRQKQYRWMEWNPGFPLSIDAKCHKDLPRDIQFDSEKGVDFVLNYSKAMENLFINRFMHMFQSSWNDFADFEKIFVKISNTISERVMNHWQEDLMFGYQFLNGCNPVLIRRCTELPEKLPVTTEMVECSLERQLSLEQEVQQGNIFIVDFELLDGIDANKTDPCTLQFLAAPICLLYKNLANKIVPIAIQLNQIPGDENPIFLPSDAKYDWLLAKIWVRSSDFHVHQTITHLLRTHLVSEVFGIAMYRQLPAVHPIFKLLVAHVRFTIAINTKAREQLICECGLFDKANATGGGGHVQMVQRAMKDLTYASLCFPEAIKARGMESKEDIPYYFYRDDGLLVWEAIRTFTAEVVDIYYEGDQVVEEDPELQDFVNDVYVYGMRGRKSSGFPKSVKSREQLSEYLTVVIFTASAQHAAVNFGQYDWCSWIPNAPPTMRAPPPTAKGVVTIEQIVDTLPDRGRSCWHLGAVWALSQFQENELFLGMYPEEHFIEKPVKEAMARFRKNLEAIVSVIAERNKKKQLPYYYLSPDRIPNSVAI
From the text: 5-lipoxygenase (5-LO) is a key enzyme in the metabolism of arachidonic acid (AA) to leukotriene B4 (LTB4) and hydroxyeicosatetraenoic acid (5-HETE) it a wide variety of cells. including polymorphonuclear (PMN) leukocytes (Henderson, 1994) and has recently been linked to prostate and other cancers (Ghosh and Myers, 1997). LTB4 is a chemotaxic signaling agent involved in the migration of PMNs from the blood stream to sites of tissue injury, which is a hallmark of the inflammatory response. Human PMNs isolated by standard procedures from a normal volunteer were prewarmed to 37° C. and, at time=0, 10 μL of test compounds suspended in methanol by sonication, or methanol alone, were added to 1 mL of the PMN suspension. At t=10 min, […] of 2 mM AA were added to each suspension as the 5-LO substrate. At t=14 min, the calcium ionophore A23187 ([…], 1 mM) was added to activate the enzyme. The reaction was terminated at t=19 minutes by 100 μL of 100 mM citric acid, maintaining a pH of 3.0. Prostaglandin B2 and 15-HETE were added as internal standards for high pressure liquid chromatography (HPLC) quantification of LTB, and 5-HETE, respectively. Metabolites and standards were extracted from the suspension with chloroform/methanol (7:3). […] Metabolites were detected by ultraviolet light and quantified against standard curves. […]

12-lipoxygenase = target: T2, 12-lipoxygenase (Homo sapiens, UniProt P18054); assay: 12-HETE assay using human platelets; type: cell-based
T2 construct: assayed by the method similar to the assay for 5-lipoxygenase by using human platelets; endogenous in cells; host or cells: human platelets (mixed with polymorphonuclear leukocytes, challenged with A23187)
T2 sequence (P18054 1-663): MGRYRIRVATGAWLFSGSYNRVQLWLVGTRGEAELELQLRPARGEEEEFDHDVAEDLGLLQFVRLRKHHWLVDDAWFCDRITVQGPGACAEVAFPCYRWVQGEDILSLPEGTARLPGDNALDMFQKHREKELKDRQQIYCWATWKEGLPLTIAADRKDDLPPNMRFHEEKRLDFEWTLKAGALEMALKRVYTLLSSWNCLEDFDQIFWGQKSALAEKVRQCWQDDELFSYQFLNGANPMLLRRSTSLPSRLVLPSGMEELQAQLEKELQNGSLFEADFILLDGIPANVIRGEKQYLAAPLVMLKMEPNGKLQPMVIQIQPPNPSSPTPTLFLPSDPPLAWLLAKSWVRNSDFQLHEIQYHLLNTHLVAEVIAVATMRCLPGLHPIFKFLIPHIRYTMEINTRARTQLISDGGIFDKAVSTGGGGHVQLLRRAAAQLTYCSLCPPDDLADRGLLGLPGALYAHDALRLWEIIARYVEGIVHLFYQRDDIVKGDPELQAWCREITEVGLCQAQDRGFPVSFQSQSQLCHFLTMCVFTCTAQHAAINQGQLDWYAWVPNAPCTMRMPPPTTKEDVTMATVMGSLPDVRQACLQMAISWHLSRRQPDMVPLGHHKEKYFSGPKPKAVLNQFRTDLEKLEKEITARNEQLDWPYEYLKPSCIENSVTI
Description: RED OIL and GOLD OIL were assayed by the method similar to the assay for 5-lipoxygenase by using human platelets. Polymorphonuclear leukocytes were mixed, challenged with A23187, and 12-HETE production was measured by high pressure liquid chromatography (HPLC). Addition of a 1:10,000 dilution of RED OIL to the reaction yielded 12-HETE levels that were 65% that of methanolic controls, while A 1:1000 dilution of GOLD OIL yielded levels that were 46% of controls.

[1] = system: PC3, MCF7, HT29 or BRO cell lines; assay: Anti-cancer assays, MTT viable dye method, 72 hr; type: cell-based; details: human cancer cell lines
Description: RED OIL and GOLD OIL and various thin-layer chromatographic fractions have been tested against human cancer cell lines in vitro. Materials were initially dissolved in dimethyl sulfoxide and then diluted in tissue culture media. Aliquots of 23 μg/mL were then applied to PC3 (human prostate), MCF7 (human breast adenocarcinoma), HT29 (human colon adenocarcinoma) or BRO (human melanoma) cell lines. These fractions mediated inhibition of cell growth relative to untreated control cells as assessed after 72 hr by the MTT viable dye method as is commonly used by those skilled in the arts. […] One such fraction isolated from sea cucumber lipid phase by the method of Findlay et al. (1983b), plastochromanol-8, was considered to be promising in that values of 20-50 μg/mL were determined as IC50 values (that concentration inhibiting 50% of cell growth). […] Plastochromanol-8 was also shown to be inhibitory of the 12-Lipoxygenase pathway in human platelets.

[2] = system: leukotriene synthesis in human neutrophils; assay: Leukotriene activation/synthesis assay in human neutrophils (method of Betts); type: cell-based
From the text: In a leukotriene activation assay showing the effect of plastochromanol-8 on leukotriene synthesis expressed as a percentage of a methanol control in human neutrophils, by the method of Betts (1997), plastochromanol-8 inhibited activation of 5-HETE by approximately 60 percent, LTB4 by approximately 40 percent, and two of the 6-trans isomers of LTB4 (6-trans-leukotriene B4 and 6-trans-12-epileukotriene B4), by 75%. In a related assay of the effect of plastochromanol-8 on leukotriene synthesis expressed as leukotriene synthesis per 10^6 PMN, plastochromanol-8 inhibited the production of 5-HETE by approximately 75%, LTB4 by 50%, and the two trans-6 isomers of LTB4 by approximately 80%. In similar assays with human platelets, plastochromanol-8 inhibited 12-HETE synthesis by approximately 80%.

[3] = system: adjuvant induced arthritis; assay: Adjuvant induced arthritis assay in rats; type: in vivo, rat; details: 10 mg/kg orally once per day for 7 days; for Mean Paw Wt.: 6 rats; for % Anti-inflammatory Response: (control - test)/test x 100
[4] = leukotriene synthesis as percentage of methanol control
[5] = leukotriene synthesis per 10^6 PMN

inhibition of 5-lipoxygenase metabolite synthesis (LTB4, isomers, 5-HETE), in words (5-lipoxygenase (5-LO))	inhibition of 12-HETE synthesis (12-lipoxygenase)	inhibition of 12-lipoxygenase pathway, in words (12-lipoxygenase)	IC50 (concentration inhibiting 50% of cell growth) [1] [µg/mL]	Compound	inhibition of 5-HETE [2, 4]	inhibition of 6-trans-leukotriene B4 and 6-trans-12-epileukotriene B4 [2, 4] [%]	inhibition of LTB4 [2, 4]	inhibition of production of 5-HETE [2, 5]	inhibition of production of LTB4 [2, 5] [%]	inhibition of production of the two trans-6 isomers of LTB4 [2, 5]	Mean Paw Wt. [3] [gm]	% Anti-inflammatory Response [3] [%]
dramatic inhibitor	approximately 80%	inhibitory	20 to 50	CC(C)=CCC/C(C)=C/CC/C(C)=C/CC/C(C)=C/CC/C(C)=C/CC/C(C)=C/CC/C(C)=C/CC/C(C)=C/CC[C@]1(C)CCc2cc(O)c(C)c(C)c2O1 [plastochromanol-8]	approximately 60%	75	approximately 40%	approximately 75%	50	approximately 80%	–	–
–	–	–	–	C[C@]12CCC(=O)C=C1CC[C@@H]1[C@@H]2[C@@H](O)C[C@@]2(C)[C@H]1CC[C@]2(O)C(=O)CO [Hydrocortisone]	–	–	–	–	–	–	0.61	59.0
–	–	–	–	CCCCC1C(=O)N(c2ccccc2)N(c2ccccc2)C1=O [Phenylbutazone]	–	–	–	–	–	–	0.38	155.3
